Results published in ChEMBL document CHEMBL1140333, “Structure-based design, synthesis, and biological evaluation of inhibitors of Mycobacterium tuberculosis type II dehydroquinase” (J Med Chem, 2005).
pKi: −log10 of the molar value.

biological target: T1, 3-dehydroquinate dehydratase (Mycobacterium tuberculosis, UniProt P9WPX7); test: Inhibition of Mycobacterium tuberculosis type II dehydroquinase at 25 degree C pH 8.2
T1 sequence (P9WPX7 whole entry): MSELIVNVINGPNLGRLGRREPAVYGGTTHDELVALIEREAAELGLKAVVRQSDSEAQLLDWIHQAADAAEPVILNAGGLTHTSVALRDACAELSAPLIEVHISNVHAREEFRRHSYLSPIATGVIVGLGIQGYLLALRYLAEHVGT

SMILES | pKi
O=C(O)[C@]1(O)C=C(c2cc(F)cc(F)c2)[C@@H](O)[C@H](O)C1 | 5.61
O=C(O)[C@]1(O)C=C(c2ccsc2)[C@@H](O)[C@H](O)C1 | 6.23
O=C(O)[C@]1(O)C=C(c2cccc([N+](=O)[O-])c2)[C@@H](O)[C@H](O)C1 | 7.27
O=C(O)[C@]1(O)C=C(c2cccc(O)c2)[C@@H](O)[C@H](O)C1 | 4.02
O=C(O)[C@]1(O)C=C(c2cccc(C(F)(F)F)c2)[C@@H](O)[C@H](O)C1 | 5.67
O=C(O)c1cccc(C2=C[C@@](O)(C(=O)O)C[C@@H](O)[C@@H]2O)c1 | 3.82
O=C(O)[C@]1(O)C=C(c2ccccc2)[C@@H](O)[C@H](O)C1 | 5.82
O=C(O)[C@]1(O)C=C(c2ccc(F)cc2)[C@@H](O)[C@H](O)C1 | 5.74
O=C(O)[C@]1(O)C=C(c2ccc(C(F)(F)F)cc2)[C@@H](O)[C@H](O)C1 | 4.77
O=C(O)[C@]1(O)C=C(c2cccc(F)c2)[C@@H](O)[C@H](O)C1 | 5.82
O=C(O)[C@]1(O)C/C(=N\O)[C@@H](O)[C@H](O)C1 | 4.70
O=C(O)[C@]1(O)C=C(F)[C@@H](O)[C@H](O)C1 | 5.00
O=C(O)[C@]1(O)C=C(c2ccoc2)[C@@H](O)[C@H](O)C1 | 6.08
O=C(O)[C@]1(O)C=C(c2cccnc2)[C@@H](O)[C@H](O)C1 | 4.35
